Structures are written as SMILES.

Sequence of Tie-2 (Q02763 23-1124): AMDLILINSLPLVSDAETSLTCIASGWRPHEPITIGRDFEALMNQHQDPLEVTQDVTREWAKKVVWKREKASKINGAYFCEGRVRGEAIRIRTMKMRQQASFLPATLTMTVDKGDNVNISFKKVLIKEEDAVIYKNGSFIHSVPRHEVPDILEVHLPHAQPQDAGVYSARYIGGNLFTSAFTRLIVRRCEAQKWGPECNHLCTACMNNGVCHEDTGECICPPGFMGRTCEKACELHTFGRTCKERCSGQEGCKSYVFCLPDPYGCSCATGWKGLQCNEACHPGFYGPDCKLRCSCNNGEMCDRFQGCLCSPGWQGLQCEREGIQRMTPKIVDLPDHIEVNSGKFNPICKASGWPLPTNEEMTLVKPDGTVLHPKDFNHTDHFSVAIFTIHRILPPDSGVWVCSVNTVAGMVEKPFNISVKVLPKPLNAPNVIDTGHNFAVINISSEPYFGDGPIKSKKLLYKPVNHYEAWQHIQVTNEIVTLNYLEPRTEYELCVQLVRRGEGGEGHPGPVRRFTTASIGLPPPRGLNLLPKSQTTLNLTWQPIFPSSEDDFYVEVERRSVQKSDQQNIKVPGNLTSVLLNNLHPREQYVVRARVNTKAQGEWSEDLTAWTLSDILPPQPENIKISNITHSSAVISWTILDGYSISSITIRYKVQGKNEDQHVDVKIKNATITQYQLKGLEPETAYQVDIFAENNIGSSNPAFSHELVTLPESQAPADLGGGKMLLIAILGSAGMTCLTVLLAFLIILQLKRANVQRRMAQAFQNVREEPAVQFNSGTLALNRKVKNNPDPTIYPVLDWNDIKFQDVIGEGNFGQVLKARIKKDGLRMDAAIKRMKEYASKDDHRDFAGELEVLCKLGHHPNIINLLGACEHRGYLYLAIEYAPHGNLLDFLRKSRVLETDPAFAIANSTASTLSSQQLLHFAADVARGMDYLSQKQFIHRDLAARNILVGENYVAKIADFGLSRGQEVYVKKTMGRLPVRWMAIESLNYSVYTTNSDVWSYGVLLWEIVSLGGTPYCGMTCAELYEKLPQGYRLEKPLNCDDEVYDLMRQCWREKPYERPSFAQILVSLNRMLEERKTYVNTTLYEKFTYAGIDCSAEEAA

The test has as its target Tie-2 (Homo sapiens, UniProt Q02763). Put plainly: Tie-2 tyrosine kinase activity: kinase-dependent ATP consumption (pEY substrate, luciferase/luciferin chemiluminescence) or 33P-ATP incorporation into substrate. As to conditions: Tie-2 (human enzyme) inhibition, Table 2, class symbols A-D. Type of test: biochemical. The procedure:
One measure of inhibition is Ki. […] The Ki for a compound is determined from the IC50 based on three assumptions. First, only one compound molecule binds to the enzyme and there is no cooperativity. […] Third, the enzymatic rate of the enzyme-inhibitor complex is zero. The rate (i.e., compound concentration) data are fitted to the equation:
[formula] where V is the observed rate, Vmax, is the rate of the free enzyme, I0 is the inhibitor concentration, E0 is the enzyme concentration, and Kd is the dissociation constant of the enzyme-inhibitor complex.
Tyrosine kinase activity is determined by 1) measurement of kinase-dependent ATP consumption by in the presence of a generic substrate such as polyglutamine, tyrosine (pEY), by luciferase/luciferin-mediated chemiluminescence or; 2) incorporation of radioactive phosphate derived from ^33P-ATP into a generic substrate which has been absorbed onto the well surface of polystyrene microtiter plates. Phosphorylated substrate products are quantified by scintillation spectrometry.
Inhibition is indicated as IC50 with following key: A=IC50 less than 50 nM, B=IC50 greater than 50 nM, but less than or equal to 1000 nM, C=IC50 greater than 1000 nM, but less than 10,000 nM, and D=IC50 10,000 nM or greater. The abbreviation for human enzyme, Tie-2, is defined as tyrosine kinase with immunoglobulin and EGF repeats.
In the case of `COc1ccc(-c2nc(-c3ccccc3)nn2CCN(C(=O)Cc2cccc3ccccc23)C2CCCC2)cc1Cl` [Entry 32, N-(2-{5-[3-chloro-4-(methyloxy)phenyl]-3-phenyl-1H-1,2,4-triazol-1-yl}ethyl)-N-cyclopentyl-2-naphthalen-1-ylacetamide], the IC50 – broadly, the concentration at which inhibition is half-maximal – is at least 10000 nM.

`COc1ccc(-c2nc(-c3ccccc3)nn2CC(=O)NC2CCCC2)cc1Cl` [Entry 33, 2-{5-[3-chloro-4-(methyloxy)phenyl]-3-phenyl-1H-1,2,4-triazol-1-yl}-N-cyclopentylacetamide] showed an IC50 of at least 10000 nM.

In turn, `COc1ccc(-c2nc(-c3ccncc3)nn2CCNC(=O)Cc2cccc3ccccc23)cc1Cl` [Entry 34, N-(2-{5-[3-chloro-4-(methyloxy)phenyl]-3-pyridin-4-yl-1H-1,2,4-triazol-1-yl}ethyl)-2-naphthalen-1-ylacetamide] returned an IC50 of 1000 to 10000 nM.

As to `COc1ccc(-c2nc(-c3ccncc3)n(CCN(C(=O)Cc3cccc4ccccc34)C(C)C)n2)cc1Cl` [Entry 35, N-(2-{3-[3-chloro-4-(methyloxy)phenyl]-5-pyridin-4-yl-1H-1,2,4-triazol-1-yl}ethyl)-N-(1-methylethyl)-2-naphthalen-1-ylacetamide], the IC50 was at least 10000 nM.

In turn, `COc1ccc(-c2nc(-c3ccncc3)nn2CCN(C(=O)Cc2cccc3ccccc23)C2CCCCC2)cc1Cl` [Entry 36, N-(2-{5-[3-chloro-4-(methyloxy)phenyl]-3-pyridin-4-yl-1H-1,2,4-triazol-1-yl}ethyl)-N-cyclohexyl-2-naphthalen-1-ylacetamide] showed an IC50 below 50 nM.

Take `COc1ccc(-c2nc(-c3ccncc3)n(CCN(C(=O)Cc3cccc4ccccc34)C3CCCCC3)n2)cc1Cl` [Entry 37, N-(2-{3-[3-chloro-4-(methyloxy)phenyl]-5-pyridin-4-yl-1H-1,2,4-triazol-1-yl}ethyl)-N-cyclohexyl-2-naphthalen-1-ylacetamide]: the IC50 lay in the range of 50 to 1000 nM.

As for `COc1ccc(-c2nc(-c3ccncc3)n(CCN(C(=O)Cc3cccc4ccccc34)C3CC3)n2)cc1Cl` [Entry 38, N-(2-{3-[3-chloro-4-(methyloxy)phenyl]-5-pyridin-4-yl-1H-1,2,4-triazol-1-yl}ethyl)-N-cyclopropyl-2-naphthalen-1-ylacetamide], the IC50 was 50 to 1000 nM.

Take `COc1ccc(-c2nc(-c3ccncc3)nn2CCN(C(=O)Cc2cccc3ccccc23)C2CCCC2)cc1` [Entry 39, N-cyclopentyl-N-(2-{5-[4-(methyloxy)phenyl]-3-pyridin-4-yl-1H-1,2,4-triazol-1-yl}ethyl)-2-naphthalen-1-ylacetamide]: the IC50 was below 50 nM.

In the case of `COc1ccc(-c2nc(-c3ccncc3)n(CCN(C(=O)Cc3cccc4ccccc34)C3CCCC3)n2)cc1` [Entry 40, N-cyclopentyl-N-(2-{3-[4-(methyloxy)phenyl]-5-pyridin-4-yl-1H-1,2,4-triazol-1-yl}ethyl)-2-naphthalen-1-ylacetamide], the IC50 was in the range of 1000 to 10000 nM.

As for `COc1ccc(-c2nc(-c3ccncc3)nn2CCN(C(=O)Cc2cccc3ccccc23)C2CCCC2)cc1OC` [Entry 41, N-(2-{5-[3,4-bis(methyloxy)phenyl]-3-pyridin-4-yl-1H-1,2,4-triazol-1-yl}ethyl)-N-cyclopentyl-2-naphthalen-1-ylacetamide], the IC50 was below 50 nM.

The compound `COc1ccc(-c2nc(-c3ccncc3)n(CCN(C(=O)Cc3cccc4ccccc34)C3CCCC3)n2)cc1OC` [Entry 42, N-(2-{3-[3,4-bis(methyloxy)phenyl]-5-pyridin-4-yl-1H-1,2,4-triazol-1-yl}ethyl)-N-cyclopentyl-2-naphthalen-1-ylacetamide] gave a 50% inhibitory concentration (IC50) of 50 to 1000 nM.

With `Cc1nc(-c2ccncc2)nn1CCN(C(=O)Cc1cccc2ccccc12)C1CCCC1` [Entry 43, N-cyclopentyl-N-[2-(5-methyl-3-pyridin-4-yl-1H-1,2,4,-triazol-1-yl)ethyl]-2-naphthalen-1-ylacetamide], the IC50 is below 50 nM.

The record behind these values is patent US8178570B2, “Tie-2 modulators and methods of use” (Exelixis, Inc., priority 2003, dated 2012).
